Source: paper PMC9311798, “A Novel Class of Potent Anti-Tyrosinase Compounds with Antioxidant Activity, 2-(Substituted phenyl)-5-(trifluoromethyl)benzo[d]thiazoles: In Vitro and In Silico Insights” (Antioxidants, 2022)

Tests used:
[1] = system: MITF in B16F10 cells; assay: Western blot of nuclear MITF; format: cell-based, murine; conditions: nuclear fraction
Method: Five different concentrations of 1b (0, 2, 5, 10, and 20 µM) were exposed to B16F10 cells for 48 h, and the cells were washed with cold PBS two times, harvested, lysed, and centrifuged at 4 °C (12,000 rpm for 10 min). Cell pellets were suspended in 10 mM Tris (pH 8.0) containing 1.5 mM MgCl2, 1 mM DTT, 0.1% NP-40, and protease inhibitors (GenDEPOT), incubated on ice for 15 min, and centrifuged at 12,000× g for 15 min at 4 °C. Supernatants (cytosolic fractions) and pellets were resuspended in 10 mM Tris (pH 8.0) containing 50 mM KCl, 100 mM NaCl, and protease inhibitor, incubated on ice for 30 min, and centrifuged at 12,000× g for 15 min at 4 °C. The resultant supernatants were nuclear fractions. The protein concentrations were determined by a Bicinchoninic Acid (BCA)™ Assay Kit (Pierce, Rockford, IL, USA). The lysed protein samples were mixed in loading buffer (0.2% bromophenol blue, 12.5 mM Tris-HCl, pH 6.8, 10% 2-mercaptoethanol, and 4% SDS) at a volume ratio of 1:4, and boiled for 10 min. […] Quantification of Western blot data were analyzed by CS Analyzer 3.2 (Densitograph) image software (http://www.attokorea.co.kr, admitted on 21 May 2022).

[2] = target: T1, mushroom tyrosinase (Agaricus bisporus, UniProt C7FF04); assay: Mushroom tyrosinase inhibition assay; format: biochemical; conditions: L-DOPA as substrate
T1 construct: purchased Sigma-Aldrich

[3] = ABTS radical scavenging activity assay; conditions: 100 µM, 2 min in the dark
Method: At 734 nm, optical densities of the solutions were measured using a microplate reader (VersaMax^TM, Molecular Devices, Sunnyvale, CA, USA). The ABTS radical scavenging capacities of the 16 2-arylbenzothiazole derivatives were compared with trolox. All experiments were performed independently in triplicate.

[4] = target: T1, mushroom tyrosinase; assay: Mushroom tyrosinase inhibition assay; format: biochemical; conditions: L-tyrosine as substrate
Method: Mushroom tyrosinase inhibitory activity was determined as described previously, with minor modifications. L-Tyrosine was used as a substrate to determine enzyme activities. […] These dose-dependent inhibition experiments were carried out three times using three to five different concentrations of test compounds to determine IC50 values. Log–linear curves and their equations were derived from the observed percentages of inhibition.

[5] = system: TRP-1, TRP-2, and tyrosinase mRNA in B16F10 cells; assay: qRT-PCR of melanogenesis-related genes; format: cell-based, murine; conditions: 24 h; GAPDH internal control; versus untreated controls
Method: Total RNAs from cells were extracted using the RiboEx Total RNA solution (GeneAll Biotechnology, Seoul, Korea). Cells in 6-well plates (0.5 mL, 1 × 10^5 cells per well) were transferred to tubes, to which chloroform (0.1 mL) was added, and shaken vigorously for 30 s. Aqueous phases were transferred to fresh tubes, and an equal volume of isopropanol was added. Samples were then incubated for 15 min at 4 °C and centrifuged at 12,000× g for 15 min at 4 °C. After discarding the supernatants, RNA pellets were washed once with 0.5 mL of 75% ethanol, vortexed briefly, and centrifuged at 7500× g for 5 min at 4 °C. Pellets were dried for 10–15 min and dissolved in diethyl pyrocarbonate (DEPC)-treated water. Complementary DNA (cDNA) was synthesized from the total RNA (2 µg) using SuPrime Script RT Premix with random hexamer cDNA Synthesis Kit (GeNet Bio, Daejeon, Korea), in accordance with the manufacturers’ instructions. Quantitative qRT-PCR amplification was performed using SensiFAST^TM SYBR® No-ROX dye (Bioline, London, UK) on the CFX Connect System (Bio-Rad Laboratories, Hercules, CA, USA). The primers specific to TRP-1, TRP-2, tyrosinase, or GAPDH were purchased from Bioneer Inc. (Daejeon, Korea). Relative gene expressions were assessed using GAPDH as the internal control.

[6] = system: B16F10 murine melanoma cells; assay: B16F10 cell viability assay (EZ-Cytox); format: cell-based; conditions: concentrations ≤20 μM, 48 h
Method: B16F10 murine melanoma cells were obtained from the American Type Culture Collection (ATCC, Manassas, VA, USA). Phosphate buffer solution (PBS), Dulbecco’s modified Eagle’s medium (DMEM), streptomycin, penicillin, trypsin, and fetal bovine serum (FBS) were purchased from Gibco/Thermo Fisher Scientific (Carlsbad, CA, USA). B16F10 cells were cultured in a DMEM solution comprising 10% heat-inactivated FBS, penicillin (100 IU/mL), and streptomycin (100 µg/mL), at 37 °C in a humidified 5% CO2 atmosphere. Experiments for anti-melanogenesis activity, cell viability, and anti-tyrosinase activity were assayed on these cells in 96- or 6-well culture plates.
Cell viability assays for B16F10 were performed using the EZ-Cytox assay (EZ-3000, DoGenBio, Seoul, Korea). In brief, B16F10 cells were seeded in a 96-well plate at a density of 1 × 10^4 cells/well, and cultured at 37 °C for 24 h in a humidified 5% CO2 atmosphere. The next day, B16F10 cells were exposed to six concentrations of 1a or 1b (0, 1, 2, 5, 10, or 20 μM), and incubated under the same conditions for 48 h. Then, the EZ-Cytox solution (10 μL) was added to each well, and the cells mixed with the EZ-Cytox solution were further incubated for 2 h. At 450 nm, optical densities were measured using a microplate reader (VersaMax^TM, Molecular Devices, Sunnyvale, CA, USA).

T1 sequence (C7FF04 1-392 limits assumed): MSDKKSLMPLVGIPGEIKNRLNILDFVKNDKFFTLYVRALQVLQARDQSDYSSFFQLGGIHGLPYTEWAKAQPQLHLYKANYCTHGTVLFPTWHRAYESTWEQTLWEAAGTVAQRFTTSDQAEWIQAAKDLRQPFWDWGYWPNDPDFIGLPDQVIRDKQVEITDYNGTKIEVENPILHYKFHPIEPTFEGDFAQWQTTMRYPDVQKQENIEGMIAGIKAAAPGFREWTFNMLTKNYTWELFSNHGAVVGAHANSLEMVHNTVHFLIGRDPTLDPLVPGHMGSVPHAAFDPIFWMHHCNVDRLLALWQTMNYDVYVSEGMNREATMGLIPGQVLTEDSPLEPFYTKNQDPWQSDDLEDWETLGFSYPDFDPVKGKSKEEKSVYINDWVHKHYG

SMILES: Oc1ccc(-c2nc3cc(C(F)(F)F)ccc3s2)c(O)c1 [Compound 1b, 4-(5-(Trifluoromethyl)benzo[d]thiazol-2-yl)benzene-1,3-diol]
- MITF protein levels ([1]; high concentrations (10–20 µM)): significantly and dose-dependently reduced MITF protein levels
- MITF protein levels ([1]; low concentrations (2–5 μM)): MITF protein levels increased
- IC50 [2]: 1.7 ± 0.11 µM
- ABTS radical scavenging activity (in words) [3]: potently scavenged the ABTS radical
- ABTS free radical scavenged (%) ([3]; 734 nm): 75%
- IC50 [4]: 0.2 ± 0.01 µM
- potency relative to kojic acid (fold more potent) ([4]; IC50 versus kojic acid): 55 fold
- increase of anti-tyrosinase activity relative to 1a ([4]; versus 1a): 240 fold
- mRNA expression levels of the three MITF target genes (TRP-1, TRP-2, tyrosinase) [5]: significantly and concentration-dependently suppressed
- cytotoxic effect on B16F10 cell viability [6]: Neither compound exhibited a significant cytotoxic effect
